According to ChEMBL document CHEMBL2034941, “Toward Overcoming Staphylococcus aureus Aminoglycoside Resistance Mechanisms with a Functionally Designed Neomycin Analogue” (2011):
≈ marks a conversion by molar mass, not a printed value.

Assays:
Type in all cases: functional
Staphylococcus aureus [1] = assay: Antimicrobial activity against Staphylococcus aureus ATCC 29213
Staphylococcus aureus [2] = assay: Antimicrobial activity against Staphylococcus aureus harboring APH(3'/5'''')-3 enzyme
Staphylococcus aureus [3] = assay: Antimicrobial activity against Staphylococcus aureus harboring ANT(4')-1 enzyme
Staphylococcus aureus [4] = assay: Antimicrobial activity against Staphylococcus aureus harboring APH(2'''') and AAC(6') enzymes
Staphylococcus aureus [5] = assay: Antimicrobial activity against methicillin-resistant Staphylococcus aureus clinical isolate
Staphylococcus aureus [6] = assay: Ratio of amikacin MIC50 to compound MIC50 for methicillin-resistant Staphylococcus aureus clinical isolate
Staphylococcus aureus [7] = assay: Ratio of amikacin MIC90 to compound MIC90 for methicillin-resistant Staphylococcus aureus clinical isolate

Compound | MIC (Staphylococcus aureus [1]) [µg/mL] | MIC (Staphylococcus aureus [2]) [µg/mL] | MIC (Staphylococcus aureus [3]) [µg/mL] | MIC (Staphylococcus aureus [4]) [µg/mL] | MIC50 (Staphylococcus aureus [5]) [µg/mL] | MIC90 (Staphylococcus aureus [5]) [µg/mL] | Ratio (Staphylococcus aureus [6]) | Ratio (Staphylococcus aureus [7])
NCC[C@H](O)C(=O)N[C@@H]1C[C@H](N)[C@@H](O[C@H]2O[C@H](CN)CC[C@H]2N)[C@H](O[C@@H]2O[C@H](CO)[C@@H](O[C@H]3O[C@@H](CN)CC[C@H]3N)[C@H]2O)[C@H]1O | 0.5 (≈ 0.767 µM) | 1 (≈ 1.53 µM) | 1 (≈ 1.53 µM) | 2 (≈ 3.07 µM) | 0.25 (≈ 0.384 µM) | 0.5 (≈ 0.767 µM) | >64 | >64
NC[C@@H]1O[C@H](O[C@H]2[C@@H](O)[C@H](O[C@@H]3[C@@H](O)[C@H](N)C[C@H](N)[C@H]3O[C@H]3O[C@H](CO)[C@@H](O)[C@H](O)[C@H]3N)O[C@@H]2CO)[C@H](N)[C@@H](O)[C@@H]1O [PAROMOMYCIN] | 2 (≈ 3.25 µM) | > 64 | > 64 | > 64 |  |  |  | 
NC[C@@H]1CC[C@@H](N)[C@@H](O[C@H]2[C@H](O[C@@H]3O[C@H](CO)[C@@H](O[C@H]4O[C@@H](CN)CC[C@H]4N)[C@H]3O)[C@@H](O)[C@H](N)C[C@@H]2N)O1 | 0.5 (≈ 0.908 µM) | 32 (≈ 58.1 µM) | 0.5 (≈ 0.908 µM) | > 64 |  |  |  | 
NCC[C@H](O)C(=O)N[C@@H]1C[C@H](N)[C@@H](O[C@H]2O[C@H](CN)[C@@H](O)[C@H](O)[C@H]2O)[C@H](O)[C@H]1O[C@H]1O[C@H](CO)[C@@H](O)[C@H](N)[C@H]1O [AMIKACIN] | 4 (≈ 6.83 µM) | 8 (≈ 13.7 µM) | 64 (≈ 109 µM) | 64 (≈ 109 µM) | 32 (≈ 54.6 µM) | > 64 |  | 
NC[C@H]1O[C@H](O[C@H]2[C@H](O[C@@H]3O[C@H](CO)[C@@H](O)[C@H]3O)[C@@H](O)[C@H](N)C[C@@H]2N)[C@H](N)[C@@H](O)[C@@H]1O [RIBOSTAMYCIN] | 8 (≈ 17.6 µM) | > 64 | > 64 | > 64 |  |  |  | 
NC[C@@H]1O[C@H](O[C@H]2[C@@H](O)[C@H](O[C@@H]3[C@@H](O)[C@H](N)C[C@H](N)[C@H]3O[C@H]3O[C@H](CN)[C@@H](O)[C@H](O)[C@H]3N)O[C@@H]2CO)[C@H](N)[C@@H](O)[C@@H]1O [FRAMYCETIN] | 0.5 (≈ 0.813 µM) | > 64 | > 64 | > 64 |  |  |  | 
CN[C@@H]1[C@@H](O)[C@@H](O[C@@H]2[C@@H](O)[C@H](O[C@H]3O[C@H]([C@@H](C)NC)CC[C@H]3N)[C@@H](N)C[C@H]2N)OC[C@]1(C)O [GENTAMICIN C1] | 0.5 (≈ 1.05 µM) | 0.5 (≈ 1.05 µM) | 0.5 (≈ 1.05 µM) | > 64 | > 32 | > 32 |  | 
NCC[C@H](O)C(=O)N[C@@H]1C[C@H](N)[C@@H](O[C@H]2O[C@H](CO)[C@@H](O)[C@H](O)[C@H]2N)[C@H](O[C@@H]2O[C@H](CO)[C@@H](O[C@H]3O[C@@H](CN)[C@@H](O)[C@H](O)[C@H]3N)[C@H]2O)[C@H]1O | 2 (≈ 2.79 µM) | 32 (≈ 44.6 µM) | > 64 | > 32 |  |  |  | 
butirosin | 8 | > 32 | > 32 | > 32 |  |  |  | 
NC[C@H]1CC[C@@H](N)[C@@H](O[C@H]2[C@@H](O)[C@H](O[C@@H]3[C@@H](O)[C@H](N)C[C@H](N)[C@H]3O[C@H]3O[C@H](CO)CC[C@H]3N)O[C@@H]2CO)O1 | 2 (≈ 3.63 µM) |  | 4 (≈ 7.25 µM) | > 32 |  |  |  | 
NCC[C@H](O)C(=O)N[C@@H]1C[C@H](N)[C@@H](O[C@H]2O[C@H](CO)CC[C@H]2N)[C@H](O[C@@H]2O[C@H](CO)[C@@H](O[C@H]3O[C@@H](CN)CC[C@H]3N)[C@H]2O)[C@H]1O | 1 (≈ 1.53 µM) |  | 8 (≈ 12.3 µM) | 16 (≈ 24.5 µM) |  |  |  | 
